The source of these data is patent US8039634B2, “Oxazole hydroxamic acid derivatives and use thereof” (SK Holdings Co., Ltd., priority 2005, dated 2011).

Molecules are shown by their SMILES. pIC50: −log10 of the molar value. ≈ marks a conversion by molar mass, not a printed value. Like-named read-outs stand apart in the source and are kept apart here.

One data set deals with HeLa. Nature of the data set: In vitro toxicity / growth inhibition (CellTiter-Glo), HeLa. Type of data set: cell-based. The following applies: Homo sapiens, 48 hr. The procedure: (§1) In order to determine in vitro toxicity of a compound in accordance with the present invention, 18 species of human cancer cell lines (HeLa, cervical cancer cell line; HCT116, SW480, SW620, RKO, colon cancer cell lines; H460, H1299, A549, lung cancer cell lines; MCF7, MDA-MB231, MDA-MB453, breast cancer cell lines; Jurkat, K562, THP1, Ramos, U937, blood cancer cell lines; PC3, DU145, prostate cancer cell lines) were used. Cell lines were cultured in RPMI 1640 culture medium containing penicillin/streptomycin (100 units/mL) and heat-inactivated 5% fetal bovine serum (FBS) under standard culture conditions ([…], 5% CO2, and 100% relative humidity). Thereafter, single cell suspension was obtained via trypsin treatment and pipetting. The suspension was diluted with the same medium such that a cell density is in a range of 8×10^3 to 1.5×10^4 cells/well, and was transferred to a 96-well microtiter plate. After culturing for 24 hours, cell cultures were treated with respective compounds of Examples at various concentrations. […] The above evaluation was carried out according to the methods given in a manufacture's manual. GI50 in Table 1 below refers to a concentration that compounds of Examples cause 50% growth inhibition of various cancer cells.
A general note: In ATP-based viability assays light output follows the ATP content of the culture.

Another data set deals with Raw cell. Nature of the data set: Inhibition of LPS-induced NO increases. Type of data set: cell-based, Mouse. The following applies: 5 μM compound; for NO: LPS, 18 hours, Griess Reagent; for activity at 5 µM: Mus musculus, 18 h, relative to LPS alone control. The procedure:
As one of the methods to confirm anti-inflammatory responses, inhibition of increases in nitric oxide (NO) due to lipopolysaccharide (LPS) was carried out. Mouse cell line (Raw cell) was cultured in RPMI 1640 culture medium containing penicillin/streptomycin (100 units/mL) and heat-inactivated 5% fetal bovine serum (FBS) under standard culture conditions ([…], 5% CO2, 37° C., and 100% relative humidity). Test compounds were dissolved in dimethylsulfoxide (DMSO) and were used as a final concentration of 1 to 40 μM. Cells were proliferated to a cell density of 5×10^3 to 2×10^4 cells on a 24-well plate and were treated with the respective compounds (equal amounts of 5 μM) 1 hour prior to treatment with LPS ([…]). The thus-treated cells were cultured for 18 hours, and thereafter the amounts of NO thus produced were measured using Griess Reagent. Measurement was confirmed using an absorption spectrophotometer at 540 nm. The value was expressed as percentage (%) relative to a control in which LPS alone was treated.
For orientation: Nitrite, measured by Griess reagent, commonly stands in for NO production.

The test system of a further data set is HCT116. Put plainly: In vitro toxicity / growth inhibition (CellTiter-Glo), HCT116. Type of data set: cell-based. The conditions noted are these: Homo sapiens, HCT-116; HCT116, 48 hr. As to the method:
as §1

Another data set is described as follows: Solubility. Type of data set: physicochemical.
The next data set concerns H460. Put plainly: In vitro toxicity / growth inhibition (CellTiter-Glo), H460. Type of data set: cell-based. The conditions noted are these: Homo sapiens, NCI-H460; H460, 48 hr. The procedure:
as §1

For a further data set, the system named is HDAC. Put plainly: Inhibition of HDAC activity (fluorometric, HeLa nuclear extract). Type of data set: biochemical, human. The following applies: 30 min room temperature. As to the method: In order to determine inhibitory activity of a compound in accordance with the present invention on HDAC, evaluation was carried out using an aminocoumarin derivative of ω-acetylated lysine as a substrate for an enzyme. As an enzyme source, a nuclear extract obtained from human cervical cancer cell line HeLa cells was used. The above evaluation was carried out with modification of a method based on the details described in Weegener et al. (2003) Analytical Biochemistry, 321, 203-208. That is, […], […] of nuclear extract and a compound of Example 1 at different concentrations were added and maintained at room temperature for 30 min. Trypsin (10 mg/ml) and Trichostatin A (final concentration: […]) were added to the resulting mixture which was reacted at the same temperature for 20 min, thereby terminating the reaction. The enzyme activity-inhibitory concentration of the compound added was determined using a fluorometer. As a control compound, suberoylanilide hydroxamic acid (SAHA) was used. IC50 in Table 1 below refers to a concentration of the compound that leads to a 50% decrease in activity of HDAC.

The subject of another data set is MCF7. Put plainly: In vitro toxicity / growth inhibition (CellTiter-Glo), MCF7. Type of data set: cell-based. The following applies: Homo sapiens; MCF7, 48 hr. The procedure:
as §1

The test system of a further data set is ICR-BG mice. The following applies: mouse, in vivo. As to the method:
In order to confirm acute toxicity in vivo, a Rotarod Neurotoxicity test was carried out on ICR-BG mice (N=8). Animals were administered at a dose of 300 mg/kg. Animals received training at 7 rpm for 10 min twice, and 1 hour later the compound of Example 1 was administered intraperitoneally (ip) to 8 mice. Thereafter, for one minute at the intervals of every 30 min, 1 hour, 2 hours and 4 hours, times that animals fell from the rotarod and death of animal post-drug administration or affliction-related responses were continuously observed. When mice fell from the rotarod more than thrice in one minute, it was regarded as fall off.

A further data set concerns Histone Deacetylase. Put plainly: Histone H3/H4 acetylation in HCT116 cells (Western blot). Type of data set: cell-based, human. The conditions noted are these: 1 μM, HCT116, 0, 2 and 5 hours. The procedure: Human color cancer cell line (HCT116) was cultured in RPMI 1640 culture medium containing penicillin/streptomycin (100 units/mL) and heat-inactivated 5% fetal bovine serum (FBS) under standard culture conditions ([…], 5% CO2, 37° C., and 100% relative humidity). Test compounds were dissolved in dimethylsulfoxide (DMSO) and were used as a final concentration of 1 μM. Cells (3×10^7) were cultured in the presence of the test compound (1 μM, Example 1) and absence thereof for 0, 2 and 5 hours, respectively. The cell suspension, which was obtained via trypsin treatment and pipetting, was centrifuged at 200×g for 10 min to form a pellet. The thus-formed pellet was washed twice with 10-fold volume of saline and re-suspended in a buffer [[…], pH 7.9, 1.5 mM MgCl2, 10 mM KCl, 0.5 mM DTT, 1.5 mM PMSF]. Thereafter, hydrochloric acid was added in a final concentration of 0.2 M to the resulting suspension which was then stored on ice for 30 min. The final suspension was centrifuged at 11,000 rpm and 4° C. for 10 min. […]
Dialyzed proteins were subjected to gel electrophoresis using 16% protein gel and were probed with acetylated histone H3 (Ac-H3) or H4 (Ac-H4) antibodies (Upstate Biotechnology Inc). […] In order to compare the equal amount of proteins, protein quantification and protein gel were run in parallel, followed by coumassie blue staining.
(Immunoblotting shows a protein as a band on a membrane.)

Take `O=C(CCCCCCc1nc(-c2ccccc2)c(-c2ccncc2)o1)NO` [Example 17, 7-(4-phenyl-5-pyridin-4-yl-oxazol-2-yl)-heptanoic acid hydroxyamide]: the GI50 with HeLa was 3.5 µM; with HCT116 it was 5.4 µM; in the data set on H460, 7.3 µM; with MCF7, 1.8 µM. Besides, the NO with Raw cell stood at 59.6 μM/L. Further, in the data set with Raw cell, the activity at 5 µM turned out to be 46.1%. The solubility in “Solubility” stood at 900 µg/mL (≈ 2460 µM). Besides, the negative-log IC50 (pIC50) with HDAC was 7.71.
Regarding `COc1ccc(-c2nc(CCCCCCC(=O)NO)oc2-c2ccc(OC)cc2)cc1` [Example 10, 7-[4,5-bis-(4-methoxy-phenyl)-oxazol-2-yl]-heptanoic acid hydroxyamide], the GI50 with HeLa was determined as 3 µM; in the data set with HCT116, 2.4 µM; with H460, 9.2 µM; in the data set on MCF7, 0.8 µM. In addition, in the data set “Solubility”, the solubility is 200 µg/mL (≈ 471 µM). The molecule further gave a pIC50 in the data set on HDAC of 9.33.
For `CCOc1ccc(-c2oc(CCCCCCC(=O)NO)nc2-c2ccncc2)cc1` [Example 19, 7-[5-(4-ethoxy-phenyl)-4-pyridin-4-yl-oxazol-2-yl]-heptanoic acid hydroxyamide], the GI50 turned out to be 2.9 µM with HeLa, 4 µM in the data set with HCT116, 4.1 µM in the data set on H460 and 1.1 µM in the data set with MCF7. Moreover, the solubility in “Solubility” was 700 µg/mL (≈ 1710 µM). Moreover, the negative-log IC50 (pIC50) with HDAC is 9.17.
As for `COc1ccc(-c2nc(CCCCCCC(=O)NO)oc2-c2cccnc2)cc1` [Example 13, 7-[4-(4-methoxy-phenyl)-5-pyridin-3-yl-oxazol-2-yl]-heptanoic acid hydroxyamide], the GI50 came out at 3.9 µM in the data set on HeLa, 3.9 µM in the data set on HCT116, 4.4 µM in the data set on H460 and 1 µM in the data set on MCF7. Also, in the data set on Raw cell, the NO turned out to be 57.1 μM/L. This molecule registered an activity at 5 µM with Raw cell of 39.2%. The same molecule yielded a solubility in “Solubility” of 900 µg/mL (≈ 2280 µM). In the data set on HDAC, this molecule gave a negative logarithm of the IC50 (pIC50) of 7.84.
With `CN(C)c1ccc(-c2oc(CCCCCCC(=O)NO)nc2-c2ccccc2)cc1` [Example 12, 7-[5-(4-dimethylamino-phenyl)-4-phenyl-oxazol-2-yl]-heptanoic acid hydroxyamide], the GI50 in the data set on HeLa is 14.1 µM; in the data set with HCT116, 9.8 µM; in the data set with H460, 19.5 µM; in the data set on MCF7, 6.9 µM. This molecule also showed an NO with Raw cell of 72.9 μM/L. The activity at 5 µM in the data set with Raw cell came out at 83.7%. Also, the solubility in “Solubility” was 700 µg/mL (≈ 1720 µM). Further, the pIC50 with HDAC was 8.30.
Turning to `O=C(CCCCCCc1nc(-c2ccccc2)c(-c2cccc(F)c2)o1)NO` [Example 6, 7-[5-(3-fluoro-phenyl)-4-phenyl-oxazol-2-yl]-heptanoic acid hydroxyamide], the GI50 is 10.7 µM in the data set on HeLa, 9.5 µM with HCT116, 15.8 µM in the data set on H460 and 3.8 µM with MCF7. Also, the NO with Raw cell was determined as 70.6 μM/L. The molecule also displayed an activity at 5 µM with Raw cell of 77.1%. This molecule also gave a solubility in the data set “Solubility” of 400 µg/mL (≈ 1050 µM). Besides, the pIC50 with HDAC is 8.83.
In the case of `COc1ccc(-c2oc(CCCCCCC(=O)NO)nc2-c2ccncc2)cc1` [Example 18, 7-[5-(4-methoxy-phenyl)-4-pyridin-4-yl-oxazol-2-yl)-heptanoic acid hydroxyamide], the 50% growth inhibitory concentration (GI50) with HeLa is 9.1 µM; in the data set on HCT116, 3.8 µM; in the data set on H460 it was 11.7 µM. Moreover, the NO in the data set on Raw cell turned out to be 68.6 μM/L. The activity at 5 µM in the data set on Raw cell worked out at 71.6%. Further, the solubility in the data set “Solubility” turned out to be 900 µg/mL (≈ 2280 µM). This molecule also showed a pIC50 in the data set with HDAC of 7.85.
Take `COc1ccc(-c2oc(CCCCCCC(=O)NO)nc2-c2ccccc2)cc1` [Example 1, 7-(5-(4-methoxyphenyl)-4-phenyloxazol-2-yl)heptanoic acid hydroxyamide]: the GI50 in the data set with HeLa stood at 1.4 µM; in the data set on HCT116, 3 µM; in the data set on H460, 3.63 µM; in the data set with MCF7 it was 0.7 µM. Further, the “Mice fallen off rotarod” value in the data set with ICR-BG mice (0.5 h) is reported as 1/8(Fallen off); in the data set on ICR-BG mice (1 h) it was 1/8; with ICR-BG mice (2 h), 0/8; with ICR-BG mice (4 h), 0/8. The molecule further came in with an NO in the data set on Raw cell of 63.7 μM/L. The activity at 5 µM in the data set on Raw cell was 57.9%. The molecule also came in with a solubility in the data set “Solubility” of 200 µg/mL (≈ 507 µM). Moreover, the “Acetylation of histone H3 (Ac-H3) and H4 (Ac-H4)” value in the data set with Histone Deacetylase is on record as “acetylated over time was confirmed via Western blot analysis”. In the data set on HDAC, this molecule had a pIC50 of 8.97.
Regarding `CN(C)c1ccc(-c2nc(CCCCCCC(=O)NO)oc2-c2cccnc2)cc1` [Example 14, 7-[4-(4-dimethylamino-phenyl)-5-pyridin-3-yl-oxazol-2-yl]-heptanoic acid hydroxyamide], the GI50 in the data set on HeLa was 7.8 µM; in the data set on HCT116, 8.7 µM; with H460 it was 23.5 µM; with MCF7 it was 8.7 µM. Further, in the data set on Raw cell, the NO came out at 69.6 μM/L. For the same molecule, the activity at 5 µM in the data set on Raw cell is 74.4%. The solubility in “Solubility” stood at 1000 µg/mL (≈ 2450 µM). The molecule also gave a pIC50 in the data set with HDAC of 8.53.
Consider `O=C(CCCCCCc1nc(-c2ccccc2)c(-c2ccc(O)cc2)o1)NO` [Example 20, 7-[5-(4-hydroxy-phenyl)-4-phenyl-oxazol-2-yl]-heptanoic acid hydroxyamide], for which the GI50 in the data set with HeLa amounted to 2.4 µM; in the data set on HCT116, 1.5 µM; with H460 it was 5.4 µM. The NO with Raw cell came out at 55.9 μM/L. In the data set on Raw cell, this molecule had an activity at 5 µM of 35.9%. This molecule came in with a solubility in “Solubility” of 300 µg/mL (≈ 789 µM). In the data set on HDAC, this molecule gave a pIC50 of 8.77.
Consider `O=C(CCCCCCc1nc(-c2ccccc2)c(-c2ccccc2)o1)NO` [Example 4, 7-(4,5-diphenyl-oxazol-2-yl)-heptanoic acid hydroxyamide], for which the GI50 came out at 2.5 µM with HeLa, 3.5 µM with HCT116 and 6.6 µM with MCF7. Further, the solubility in the data set “Solubility” came out at 200 µg/mL (≈ 549 µM). The molecule also showed a pIC50 in the data set on HDAC of 8.70.

The GI50 is the concentration that inhibits growth by half. A higher GI50 goes with less potent growth inhibition. The solubility is the concentration that dissolves in the medium under given conditions. As a reminder, the pIC50 is the negative decadic logarithm of the IC50, by convention in mol/L. High values mean a small IC50, low ones a large IC50.
